# Laboratory results taken from US12030878B2 (BRISTOL-MYERS SQUIBB COMPANY, priority 2017, dated 2024).
# Key:
# Format in all cases: cell-based
# [1] = target: T1, human TLR7 (Homo sapiens, UniProt Q9NYK1); test: TLR7 inhibition reporter assay (HEK-Blue SEAP); details: HEK-Blue cells overexpressing human TLR7, stimulated with gardiquimod 7.5 μM, 22 hour incubation
# T1 construct: host or cells: HEK-Blue cells
# T1 sequence (Q9NYK1 27-1049): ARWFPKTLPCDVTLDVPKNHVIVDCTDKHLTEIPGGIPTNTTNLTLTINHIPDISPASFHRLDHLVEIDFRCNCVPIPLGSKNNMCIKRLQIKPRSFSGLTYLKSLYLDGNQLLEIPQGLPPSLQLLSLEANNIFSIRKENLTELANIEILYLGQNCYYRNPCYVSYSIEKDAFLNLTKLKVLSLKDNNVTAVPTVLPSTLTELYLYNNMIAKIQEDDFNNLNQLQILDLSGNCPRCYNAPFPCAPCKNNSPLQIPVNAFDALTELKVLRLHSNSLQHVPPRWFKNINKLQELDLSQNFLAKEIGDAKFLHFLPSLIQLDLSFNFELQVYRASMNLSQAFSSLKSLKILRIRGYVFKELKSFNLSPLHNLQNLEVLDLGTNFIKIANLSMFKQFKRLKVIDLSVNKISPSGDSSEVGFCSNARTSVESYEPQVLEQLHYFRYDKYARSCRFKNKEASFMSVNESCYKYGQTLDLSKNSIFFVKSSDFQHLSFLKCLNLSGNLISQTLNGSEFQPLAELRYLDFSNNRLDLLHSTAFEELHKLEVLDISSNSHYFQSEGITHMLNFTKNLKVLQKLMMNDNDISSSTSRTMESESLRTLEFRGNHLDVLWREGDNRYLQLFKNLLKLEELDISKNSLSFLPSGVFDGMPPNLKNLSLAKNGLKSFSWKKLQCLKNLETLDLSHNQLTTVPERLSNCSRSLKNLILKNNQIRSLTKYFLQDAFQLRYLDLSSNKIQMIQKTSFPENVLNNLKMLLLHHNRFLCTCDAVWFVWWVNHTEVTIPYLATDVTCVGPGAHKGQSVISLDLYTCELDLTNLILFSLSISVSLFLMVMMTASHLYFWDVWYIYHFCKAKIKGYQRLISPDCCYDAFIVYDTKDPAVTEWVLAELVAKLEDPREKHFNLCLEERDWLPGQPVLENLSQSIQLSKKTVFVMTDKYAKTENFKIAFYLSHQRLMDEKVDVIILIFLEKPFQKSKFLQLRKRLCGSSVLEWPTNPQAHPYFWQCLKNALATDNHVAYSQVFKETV
# Method: (§1) TLR7/8/9 Inhibition Reporter Assays
# (§2) HEK-Blue™-cells (Invivogen) overexpressing human TLR7, TLR8 or TLR9 receptors were used for screening inhibitors of these receptors using an inducible SEAP (secreted embryonic alkaline phosphatase) reporter gene under the control of the IFN-β minimal promoter fused to five NF-κB and AP-1-binding sites. Briefly, cells are seeded into Greiner 384 well plates (15000 cells per well for TLR7, 20.000 for TLR8 and 25,000 for TLR9) and then treated with test compounds in DMSO to yield a final dose response concentration range of 0.05 nM-50 μM. After a 30 minute compound pre-treatment at room temperature, the cells are then stimulated with a TLR7 ligand (gardiquimod at a final concentration of 7.5 μM), TLR8 ligand (R848 at a final concentration of 15.9 μM) or TLR9 ligand (ODN2006 at a final concentration of 5 nM) to activate NF-κB and AP-1 which induce the production of SEAP. After a 22 hour incubation at 37° C., 5% CO2, SEAP levels are determined with the addition of HEK-Blue™ Detection reagent (Invivogen), a cell culture medium that allows for detection of SEAP, according to manufacturer's specifications. The percent inhibition is determined as the % reduction in the HEK-Blue signal present in wells treated with agonist plus DMSO alone compared to wells treated with a known inhibitor.
# [2] = target: T2, human TLR8 (Homo sapiens, UniProt Q9NR97); test: TLR8 inhibition reporter assay (HEK-Blue SEAP); details: HEK-Blue cells overexpressing human TLR8, stimulated with R848 15.9 μM, 22 hour incubation
# T2 construct: host or cells: HEK-Blue cells
# T2 sequence (Q9NR97 27-1041): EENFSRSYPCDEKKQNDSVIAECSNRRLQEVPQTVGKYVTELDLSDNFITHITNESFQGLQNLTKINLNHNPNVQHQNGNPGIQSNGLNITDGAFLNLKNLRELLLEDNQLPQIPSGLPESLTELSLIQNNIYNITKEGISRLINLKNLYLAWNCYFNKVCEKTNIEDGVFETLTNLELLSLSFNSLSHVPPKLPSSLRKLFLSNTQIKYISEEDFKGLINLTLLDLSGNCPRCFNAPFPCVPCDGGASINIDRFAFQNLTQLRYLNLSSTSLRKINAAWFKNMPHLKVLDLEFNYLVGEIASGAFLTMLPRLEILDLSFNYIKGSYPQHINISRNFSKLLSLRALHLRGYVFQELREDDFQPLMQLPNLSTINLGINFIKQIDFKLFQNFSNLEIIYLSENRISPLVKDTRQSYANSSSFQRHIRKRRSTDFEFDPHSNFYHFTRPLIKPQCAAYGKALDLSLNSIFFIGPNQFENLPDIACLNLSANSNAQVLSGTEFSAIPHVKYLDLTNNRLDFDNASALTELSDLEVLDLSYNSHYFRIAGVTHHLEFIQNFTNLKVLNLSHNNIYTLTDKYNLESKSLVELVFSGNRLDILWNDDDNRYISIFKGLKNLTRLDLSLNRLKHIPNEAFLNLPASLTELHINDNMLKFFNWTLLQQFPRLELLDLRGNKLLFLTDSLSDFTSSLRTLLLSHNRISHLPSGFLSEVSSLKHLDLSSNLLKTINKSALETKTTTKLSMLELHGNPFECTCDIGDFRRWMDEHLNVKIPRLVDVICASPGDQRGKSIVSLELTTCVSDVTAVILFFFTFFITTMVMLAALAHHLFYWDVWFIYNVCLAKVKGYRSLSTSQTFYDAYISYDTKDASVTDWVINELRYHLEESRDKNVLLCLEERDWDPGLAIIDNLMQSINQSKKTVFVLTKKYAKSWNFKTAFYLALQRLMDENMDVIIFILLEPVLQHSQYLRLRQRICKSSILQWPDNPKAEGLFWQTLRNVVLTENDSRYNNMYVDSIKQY
# Method: as §1, §2
# [3] = target: T3, human TLR9 (Homo sapiens, UniProt Q9NR96); test: TLR9 inhibition reporter assay (HEK-Blue SEAP); details: HEK-Blue cells overexpressing human TLR9, stimulated with ODN2006 5 nM, 22 hour incubation
# T3 construct: host or cells: HEK-Blue cells
# T3 sequence (Q9NR96 26-1032): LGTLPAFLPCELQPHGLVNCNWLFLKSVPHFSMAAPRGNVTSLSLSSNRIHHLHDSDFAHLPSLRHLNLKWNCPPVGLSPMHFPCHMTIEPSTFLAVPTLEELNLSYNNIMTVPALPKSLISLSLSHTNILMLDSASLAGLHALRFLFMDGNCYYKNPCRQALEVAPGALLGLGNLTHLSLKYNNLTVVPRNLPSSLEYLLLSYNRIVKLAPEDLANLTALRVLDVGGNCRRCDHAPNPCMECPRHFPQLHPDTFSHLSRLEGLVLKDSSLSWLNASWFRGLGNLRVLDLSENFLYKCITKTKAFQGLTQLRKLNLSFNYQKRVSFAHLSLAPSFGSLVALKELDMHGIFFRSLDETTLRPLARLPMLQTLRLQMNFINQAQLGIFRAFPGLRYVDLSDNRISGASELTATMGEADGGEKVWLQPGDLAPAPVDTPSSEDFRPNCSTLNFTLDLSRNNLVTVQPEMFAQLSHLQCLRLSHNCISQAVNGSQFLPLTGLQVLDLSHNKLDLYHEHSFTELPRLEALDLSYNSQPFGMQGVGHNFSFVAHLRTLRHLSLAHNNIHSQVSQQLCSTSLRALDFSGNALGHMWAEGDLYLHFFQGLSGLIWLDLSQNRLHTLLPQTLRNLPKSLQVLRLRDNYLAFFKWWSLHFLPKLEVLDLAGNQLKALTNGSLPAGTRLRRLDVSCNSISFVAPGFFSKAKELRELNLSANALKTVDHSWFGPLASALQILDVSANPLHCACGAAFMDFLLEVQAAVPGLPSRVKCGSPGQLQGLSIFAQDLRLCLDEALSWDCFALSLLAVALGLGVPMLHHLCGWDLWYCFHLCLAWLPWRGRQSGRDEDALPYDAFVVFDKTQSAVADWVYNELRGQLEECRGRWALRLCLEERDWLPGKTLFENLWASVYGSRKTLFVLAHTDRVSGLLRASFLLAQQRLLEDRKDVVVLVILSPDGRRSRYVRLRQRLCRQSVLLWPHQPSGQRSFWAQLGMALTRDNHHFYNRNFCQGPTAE
# Method: as §1, §2
SMILES,IC50 [1],IC50 [2],IC50 [3]
"Cc1cc(-c2[nH]c3ccc(OC4CCNCC4)cc3c2C(C)C)cc(C)n1 [Example 1, 2-(2,6-dimethylpyridin-4-yl)-3-isopropyl-5-(piperidin-4-yloxy)-1H-indole]",2.9 nM,2.1 nM,241 nM
"Cc1cc(-c2[nH]c3ccc(OCCN4CCCC4)cc3c2C(C)C)cn2ncnc12 [Example 2, 6-(3-isopropyl-5-(2-(pyrrolidin-1-yl)ethoxy)-1H-indol-2-yl)-8-methyl-[1,2,4]triazolo[1,5-a]pyridine]",1 nM,1.6 nM,2140 nM
"Cc1cc(-c2[nH]c3ccc(OCCN4CCC(F)(F)CC4)cc3c2C(C)C)cn2ncnc12 [Example 3, 6-(5-(2-(4,4-difluoropiperidin-1-yl)ethoxy)-3-isopropyl-1H-indol-2-yl)-8-methyl-[1,2,4]triazolo[1,5-a]pyridine]",26.4 nM,11 nM,18700 nM
"Cc1cc(-c2[nH]c3ccc(OCCN4CCCC(F)C4)cc3c2C(C)C)cn2ncnc12 (centres unmarked) [Example 4, 6-(5-(2-(3-fluoropiperidin-1-yl)ethoxy)-3-isopropyl-1H-indol-2-yl)-8-methyl-[1,2,4]triazolo[1,5-a]pyridine]",> 3130 nM,15.4 nM,> 50000 nM
"Cc1cc(-c2[nH]c3ccc(OCCN4CCOCC4)cc3c2C(C)C)cn2ncnc12 [Example 5, 4-(2-((3-isopropyl-2-(8-methyl-[1,2,4]triazolo[1,5-a]pyridin-6-yl)-1H-indol-5-yl)oxy)ethyl)morpholine]",8.1 nM,3.3 nM,37300 nM
"Cc1cc(-c2[nH]c3ccc(OCC4CCNCC4)cc3c2C(C)C)cc(C)n1 [Example 6, 2-(2,6-dimethylpyridin-4-yl)-3-isopropyl-5-(piperidin-4-ylmethoxy)-1H-indole]",1.8 nM,4.4 nM,406 nM
"Cc1cc(-c2[nH]c3ccc(OCC4CCNCC4)cc3c2C(C)C)cn(C)c1=O [Example 7, 5-(3-isopropyl-5-(piperidin-4-ylmethoxy)-1H-indol-2-yl)-1,3-dimethylpyridin-2(1H)-one]",2.1 nM,2.6 nM,797 nM
"Cc1cc(-c2[nH]c3ccc(O[C@H]4CCCNC4)cc3c2C(C)C)cn(C)c1=O [Example 8, (S)-5-(3-isopropyl-5-(piperidin-3-yloxy)-1H-indol-2-yl)-1,3-dimethylpyridin-2(1H)-one]",6.6 nM,13.9 nM,3520 nM
"Cc1cc(-c2[nH]c3ccc(O[C@H]4CCCNC4)cc3c2C(C)C)cn2ncnc12 [Example 9, (S)-6-(3-isopropyl-5-(piperidin-3-yloxy)-1H-indol-2-yl)-8-methyl-[1,2,4]triazolo[1,5-a]pyridine]",0.8 nM,10.6 nM,2270 nM
"COc1cc(-c2[nH]c3ccc(OC4CCN(CC(=O)N(C)C)CC4)cc3c2C(C)C)cn2ncnc12 [Example 93, 2-(4-((3-isopropyl-2-(8-methoxy-[1,2,4]triazolo[1,5-a]pyridin-6-yl)-1H-indol-5-yl)oxy)piperidin-1-yl)-N,N-dimethylacetamide]",,2.6 nM,1810 nM
"CNC(=O)CN1CCC(Oc2ccc3[nH]c(-c4cn(C)c(=O)c(C)c4C)c(C(C)C)c3c2)CC1 [Example 115, 2-(4-((3-isopropyl-2-(1,4,5-trimethyl-6-oxo-1,6-dihydropyridin-3-yl)-1H-indol-5-yl)oxy)piperidin-1-yl)-N-methylacetamide]",39.7 nM,8.6 nM,
"Cc1cc(-c2[nH]c3ccc(OCc4c[nH]cn4)cc3c2C(C)C)ccn1 [Example 176, 5-((1H-imidazol-4-yl)methoxy)-3-isopropyl-2-(2-methylpyridin-4-yl)-1H-indole]",,,13600 nM
"Cc1cc(-c2[nH]c3ccc(OCc4c[nH]cn4)cc3c2C(C)C)ccn1 [Example 178, 5-((1H-imidazol-4-yl)methoxy)-3-isopropyl-2-(2-methylpyridin-4-yl)-1H-indole]",,,> 50000 nM
"Cc1cc(-c2[nH]c3ccc(OC4CCN(CCC(F)(F)F)CC4)cc3c2C(C)C)ccn1 [Example 187, 3-isopropyl-2-(2-methylpyridin-4-yl)-5-((1-(3,3,3-trifluoropropyl)piperidin-4-yl)oxy)-1H-indole]",257 nM,3.9 nM,
